According to US20090012103A1, “SUBSTITUTED HETEROCYCLIC COMPOUNDS” (priority 2007, published 2009):

Biological target: wild-type human cardiac sodium channel, hNav1.5 (Homo sapiens, UniProt Q14524)
Experiment: Late INa screening assay (late sodium current, PatchXpress whole cell patch clamp)
Assay type: cell-based
Conditions: compound at 10 μM; read-out: Late INa % blk

wild-type human cardiac sodium channel, hNav1.5, sequence (Q14524 whole entry): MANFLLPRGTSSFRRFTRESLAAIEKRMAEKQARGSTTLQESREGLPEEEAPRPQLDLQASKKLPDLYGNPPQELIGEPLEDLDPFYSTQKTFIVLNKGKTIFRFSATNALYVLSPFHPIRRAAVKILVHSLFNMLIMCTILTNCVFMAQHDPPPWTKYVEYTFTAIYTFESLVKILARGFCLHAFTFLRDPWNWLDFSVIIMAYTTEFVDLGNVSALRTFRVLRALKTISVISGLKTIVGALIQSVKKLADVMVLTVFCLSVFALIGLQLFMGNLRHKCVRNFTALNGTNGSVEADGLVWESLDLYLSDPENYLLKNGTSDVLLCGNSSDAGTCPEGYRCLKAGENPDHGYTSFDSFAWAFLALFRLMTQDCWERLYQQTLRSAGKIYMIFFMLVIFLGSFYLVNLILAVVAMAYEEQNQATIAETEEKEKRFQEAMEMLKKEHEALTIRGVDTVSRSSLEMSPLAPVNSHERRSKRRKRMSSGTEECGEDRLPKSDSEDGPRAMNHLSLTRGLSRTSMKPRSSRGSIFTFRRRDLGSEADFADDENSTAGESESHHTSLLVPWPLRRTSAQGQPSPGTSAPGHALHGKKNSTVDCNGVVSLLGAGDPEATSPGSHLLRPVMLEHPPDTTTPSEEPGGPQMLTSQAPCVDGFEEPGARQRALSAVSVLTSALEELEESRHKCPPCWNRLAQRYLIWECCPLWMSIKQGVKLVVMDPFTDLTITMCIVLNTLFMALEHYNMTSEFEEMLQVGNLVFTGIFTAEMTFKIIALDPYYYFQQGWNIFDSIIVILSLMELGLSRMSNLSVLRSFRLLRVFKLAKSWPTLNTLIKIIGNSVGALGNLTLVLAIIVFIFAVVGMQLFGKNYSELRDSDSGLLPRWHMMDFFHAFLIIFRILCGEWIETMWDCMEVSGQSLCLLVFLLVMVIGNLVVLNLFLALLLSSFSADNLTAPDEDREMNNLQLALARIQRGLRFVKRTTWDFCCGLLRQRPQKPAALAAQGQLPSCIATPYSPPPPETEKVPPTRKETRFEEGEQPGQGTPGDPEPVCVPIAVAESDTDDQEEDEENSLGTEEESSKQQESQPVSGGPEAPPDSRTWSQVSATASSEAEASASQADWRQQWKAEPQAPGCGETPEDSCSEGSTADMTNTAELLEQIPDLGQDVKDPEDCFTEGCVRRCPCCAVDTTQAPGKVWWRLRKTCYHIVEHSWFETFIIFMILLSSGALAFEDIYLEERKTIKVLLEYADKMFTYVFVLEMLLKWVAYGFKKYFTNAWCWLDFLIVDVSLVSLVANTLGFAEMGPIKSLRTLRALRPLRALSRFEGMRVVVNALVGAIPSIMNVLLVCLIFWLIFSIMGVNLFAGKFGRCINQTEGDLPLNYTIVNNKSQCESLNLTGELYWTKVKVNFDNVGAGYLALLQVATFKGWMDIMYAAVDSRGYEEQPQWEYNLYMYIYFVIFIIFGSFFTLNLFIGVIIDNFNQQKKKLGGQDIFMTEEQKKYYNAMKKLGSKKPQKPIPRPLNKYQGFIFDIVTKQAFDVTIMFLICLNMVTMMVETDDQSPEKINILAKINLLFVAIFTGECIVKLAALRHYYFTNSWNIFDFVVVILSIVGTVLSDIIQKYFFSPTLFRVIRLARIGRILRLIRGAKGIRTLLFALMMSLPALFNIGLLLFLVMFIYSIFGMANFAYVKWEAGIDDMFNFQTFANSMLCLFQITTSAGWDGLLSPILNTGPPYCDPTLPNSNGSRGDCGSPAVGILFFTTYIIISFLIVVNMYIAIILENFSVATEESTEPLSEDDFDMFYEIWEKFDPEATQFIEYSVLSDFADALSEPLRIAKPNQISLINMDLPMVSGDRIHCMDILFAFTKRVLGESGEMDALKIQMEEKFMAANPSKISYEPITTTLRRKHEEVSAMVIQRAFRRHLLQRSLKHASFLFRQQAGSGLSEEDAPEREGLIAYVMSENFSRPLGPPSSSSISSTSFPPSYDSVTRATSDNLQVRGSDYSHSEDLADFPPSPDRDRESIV

Structure (SMILES) | inhibition at 10 µM
CC1=C(C(=O)OCc2ccccc2)C(c2ccccc2B(O)O)n2nnnc2N1 (centres unmarked) [PT-255, 2-(6-(benzyloxycarbonyl)-5-methyl-4,7-dihydrotetrazolo[1,5-a]pyrimidin-7-yl)phenylboronic acid] | 20.6%
CC1=C(C(=O)OCc2ccccc2)C(c2sccc2B(O)O)n2nnnc2N1 (centres unmarked) [PT-256, 2-(6-(benzyloxycarbonyl)-5-methyl-4,7-dihydrotetrazolo[1,5-a]pyrimidin-7-yl)thiophen-3-ylboronic acid] | 25.7%
CC1=C(C(=O)OCc2ccccc2)C(c2cccc3ccccc23)n2nnnc2N1CC(=O)O (centres unmarked) [PT-257, 2-(6-(benzyloxycarbonyl)-5-methyl-7-(naphthalen-1-yl)tetrazolo[1,5-a]pyrimidin-4(7H)-yl)acetic acid] | 7.4%
CCOC(=O)C1=C(C)N(CC(=O)O)c2nnnn2C1c1cccc2ccccc12 (centres unmarked) [PT-258, 2-(6-(ethoxycarbonyl)-5-methyl-7-(naphthalen-1-yl)tetrazolo[1,5-a]pyrimidin-4(7H)-yl)acetic acid] | 1.6%
CC1=C(C(=O)OC2Cc3ccccc3C2)C(c2cccc3ccccc23)n2nnnc2N1 (centres unmarked) [PT-260, 2,3-dihydro-1H-inden-2-yl 5-methyl-7-(naphthalen-1-yl)-4,7-dihydrotetrazolo[1,5-a]pyrimidine-6-carboxylate] | 74.8%
CC1=C(c2nnc(Cc3ccccc3)o2)C(c2cccc3ccccc23)n2nnnc2N1 (centres unmarked) [PT-261, 2-benzyl-5-(5-methyl-7-(naphthalen-1-yl)-4,7-dihydrotetrazolo[1,5-a]pyrimidin-6-yl)-1,3,4-oxadiazole] | 59.4%
CC1=C(C(=O)OC(C)(C)Cc2ccccc2)C(c2ccccc2Br)c2cn[nH]c2N1 (centres unmarked) [PT-263, 2-methyl-1-phenylpropan-2-yl 4-(2-bromophenyl)-6-methyl-4,7-dihydro-1H-pyrazolo[3,4-b]pyridine-5-carboxylate] | 38.8%
CC1=C(C(=O)N2CCCCC2)C(c2cccc3ccccc23)C2=C(CCCC2=O)N1 (centres unmarked) [PT-265, 2-methyl-4-(naphthalen-1-yl)-3-(piperidine-1-carbonyl)-4,6,7,8-tetrahydroquinolin-5(1H)-one] | 18.6%
CC1=C(C(=O)NNC(=O)Cc2ccccc2)C(c2cccc3ccccc23)C2=C(CCCC2=O)N1 (centres unmarked) [PT-266, 2-methyl-4-(naphthalen-1-yl)-5-oxo-N′-(2-phenylacetyl)-1,4,5,6,7,8-hexahydroquinoline-3-carbohydrazide] | 8.8%
CC1=C(c2nnc(C)o2)C(c2cccc3ccccc23)n2nnnc2N1 (centres unmarked) [PT-267, 2-methyl-5-(5-methyl-7-(naphthalen-1-yl)-4,7-dihydrotetrazolo[1,5-a]pyrimidin-6-yl)-1,3,4-oxadiazole] | 17%
CCOC(=O)C1=C(C)Nc2nnnn2C1c1ccccc1OCc1cccc(C(=O)O)c1 (centres unmarked) [PT-268, 3-((2-(6-(ethoxycarbonyl)-5-methyl-4,7-dihydrotetrazolo[1,5-a]pyrimidin-7-yl)phenoxy)methyl)benzoic acid] | 9.5%
CCOC(=O)C1=C(C)Nc2nnnn2C1c1cccc(OCc2cccc(C(=O)O)c2)c1 (centres unmarked) [PT-269, 3-((3-(6-(ethoxycarbonyl)-5-methyl-4,7-dihydrotetrazolo[1,5-a]pyrimidin-7-yl)phenoxy)methyl)benzoic acid] | 12.3%
CC1=C(C(=O)OCc2cccc(-c3nnn[nH]3)c2)C(c2cccc3ccccc23)n2nnnc2N1 (centres unmarked) [PT-271, 3-(1H-tetrazol-5-yl)benzyl 5-methyl-7-(naphthalen-1-yl)-4,7-dihydrotetrazolo[1,5-a]pyrimidine-6-carboxylate] | 5.8%
CCOC(=O)C1=C(C)Nc2nnnn2C1c1ccccc1Oc1cccc(C(=O)O)c1 (centres unmarked) [PT-272, 3-(2-(6-(ethoxycarbonyl)-5-methyl-4,7-dihydrotetrazolo[1,5-a]pyrimidin-7-yl)phenoxy)benzoic acid] | -4.9%
COC(=O)C1=C(C)Nc2nnnn2C1c1sc2ccccc2c1-c1cccc(C(=O)O)c1 (centres unmarked) [PT-273, 3-(2-(6-(methoxycarbonyl)-5-methyl-4,7-dihydrotetrazolo[1,5-a]pyrimidin-7-yl)benzo[b]thiophen-3-yl)benzoic acid] | 14.1%
CCOC(=O)C1=C(C)Nc2nnnn2C1c1cccc(Oc2cccc(C(=O)O)c2)c1 (centres unmarked) [PT-274, 3-(3-(6-(ethoxycarbonyl)-5-methyl-4,7-dihydrotetrazolo[1,5-a]pyrimidin-7-yl)phenoxy)benzoic acid] | 16.8%
COC(=O)C1=C(C)Nc2nnnn2C1c1c(-c2cccc(C(=O)O)c2)sc2ccccc12 (centres unmarked) [PT-275, 3-(3-(6-(methoxycarbonyl)-5-methyl-4,7-dihydrotetrazolo[1,5-a]pyrimidin-7-yl)benzo[b]thiophen-2-yl)benzoic acid] | 9.4%
CC1=C(C(=O)OCc2ccccc2)C(c2ccsc2B(O)O)n2nnnc2N1 (centres unmarked) [PT-277, 3-(6-(benzyloxycarbonyl)-5-methyl-4,7-dihydrotetrazolo[1,5-a]pyrimidin-7-yl)thiophen-2-ylboronic acid] | 18%
CC1=C(C(=O)OCc2cccc(C#N)c2)C(c2cccc3ccccc23)n2nnnc2N1 (centres unmarked) [PT-278, 3-cyanobenzyl 5-methyl-7-(naphthalen-1-yl)-4,7-dihydrotetrazolo[1,5-a]pyrimidine-6-carboxylate] | 63.9%
CC1=C(C(=O)OCc2ccc(Cn3cccn3)cc2)C(c2ccccc2OCc2ccccc2)n2nnnc2N1 (centres unmarked) [PT-282, 4-((1H-pyrazol-1-yl)methyl)benzyl 7-(2-(benzyloxy)phenyl)-5-methyl-4,7-dihydrotetrazolo[1,5-a]pyrimidine-6-carboxylate] | 30.2%
CC1=C(C(=O)OCc2ccc(Cn3cccn3)cc2)C(c2ccc(N(C)C)c3ccccc23)n2nnnc2N1 (centres unmarked) [PT-283, 4-((1H-pyrazol-1-yl)methyl)benzyl 7-(4-(dimethylamino)naphthalen-1-yl)-5-methyl-4,7-dihydrotetrazolo[1,5-a]pyrimidine-6-carboxylate] | 11.4%
COc1ccc(C2C(C(=O)OCc3ccc(Cn4cccn4)cc3)=C(C)Nc3nnnn32)c2ccccc12 (centres unmarked) [PT-284, 4-((1H-pyrazol-1-yl)methyl)benzyl 7-(4-methoxynaphthalen-1-yl)-5-methyl-4,7-dihydrotetrazolo[1,5-a]pyrimidine-6-carboxylate] | 49.5%
CCOC(=O)C1=C(C)Nc2nnnn2C1c1ccccc1OCc1ccc(C(=O)O)cc1 (centres unmarked) [PT-285, 4-((2-(6-(ethoxycarbonyl)-5-methyl-4,7-dihydrotetrazolo[1,5-a]pyrimidin-7-yl)phenoxy)methyl)benzoic acid] | -2.2%
CCOC(=O)C1=C(C)Nc2nnnn2C1c1cccc(OCc2ccc(C(=O)O)cc2)c1 (centres unmarked) [PT-286, 4-((3-(6-(ethoxycarbonyl)-5-methyl-4,7-dihydrotetrazolo[1,5-a]pyrimidin-7-yl)phenoxy)methyl)benzoic acid] | 8.8%
CC1=C(C(=O)OCc2ccc(-n3cccn3)cc2)C(c2cccc3ccccc23)n2nnnc2N1 (centres unmarked) [PT-289, 4-(1H-pyrazol-1-yl)benzyl 5-methyl-7-(naphthalen-1-yl)-4,7-dihydrotetrazolo[1,5-a]pyrimidine-6-carboxylate] | 3.3%
CC1=C(C(=O)OCCOc2ccc(C(=O)O)cc2)C(c2cccc3ccccc23)n2nnnc2N1 (centres unmarked) [PT-290, 4-(2-(5-methyl-7-(naphthalen-1-yl)-4,7-dihydrotetrazolo[1,5-a]pyrimidine-6-carbonyloxy)ethoxy)benzoic acid] | 14.4%
